Tests used:
Type in all cases: in vivo
[1] = system: corn (Zea mays); assay: Test A pre-/postemergence: corn
How it was run: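 Injury was scored visually on a 0 (no effect) to 100 (complete control) scale versus untreated controls roughly ten days after treatment in the greenhouse. Compounds, formulated in surfactant-containing non-phytotoxic solvent, went on as soil-directed preemergence spray or postemergence to one- to two-leaf plants 2–10 cm tall.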

[2] = system: ducksalad (Heteranthera limosa); assay: Test B flooded paddy: ducksalad; conditions: Flood, applied to paddy water at 2-leaf stage, visually evaluated after 13 to 15 days
How it was run: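 Response scored visually, 0–100 relative to controls, 13–15 days after the compound was applied into paddy water; plants were at the 2-leaf stage in pots kept flooded to 3 cm.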

[3] = system: wild oat (Avena fatua); assay: Test C pre-/postemergence: wild oat
How it was run: (§1)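 Preemergence on seeds in loam/sand, postemergence on 2–18 cm (1–4-leaf) plants in peat-based medium; compounds in non-phytotoxic solvent with surfactant. After 13–15 days in greenhouse, visual rating versus controls, 0 (no effect) to 100 (complete control).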

[4] = system: corn (Zea mays); assay: Test C pre-/postemergence: corn
How it was run: as §1

[5] = system: large crabgrass (Digitaria sanguinalis); assay: Test C pre-/postemergence: large crabgrass
How it was run: as §1

[6] = system: chickweed (common chickweed, Stellaria media); assay: Test C postemergence: chickweed
How it was run: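 Pot-grown plants in peat/vermiculite medium sprayed postemergence at 2–18 cm height (1- to 4-leaf stage). Kept in greenhouse 13 to 15 days, then visually rated against untreated controls on a 0–100 scale (0 = no effect, 100 = complete control).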

[7] = system: kochia (Kochia scoparia); assay: Test C pre-/postemergence: kochia
How it was run: as §1

[8] = system: foxtail, giant (giant foxtail, Setaria faberii); assay: Test C pre-/postemergence: foxtail, giant
How it was run: as §1

[9] = system: velvetleaf (Abutilon theophrasti); assay: Test C pre-/postemergence: velvetleaf
How it was run: as §1

[10] = system: nutsedge, yellow (yellow nutsedge, Cyperus esculentus); assay: Test C pre-/postemergence: nutsedge, yellow
How it was run: as §1

[11] = system: ragweed (common ragweed, Ambrosia elation); assay: Test C pre-/postemergence: ragweed
How it was run: as §1

[12] = Postemergence, 125 g ai/ha, 0 to 100 scale, 0 is no effect, 100 is complete control
[13] = Preemergence, 125 g ai/ha, 0 to 100 scale where 0 is no effect and 100 is complete control
[14] = Preemergence, 500 g ai/ha, 0 to 100 scale (0 no effect, 100 complete control)
[15] = Postemergence, 31 g ai/ha, scale 0 to 100 (0 no effect, 100 complete control)
[16] = Postemergence, 62 g ai/ha, scale 0 to 100 (0 no effect, 100 complete control)
[17] = Postemergence, 125 g ai/ha, scale 0 to 100, 0 no effect, 100 complete control
[18] = Postemergence, 250 g ai/ha, scale 0 to 100 (0 no effect, 100 complete control)
[19] = Postemergence, 250 g ai/ha, scale 0 to 100
[20] = Preemergence, 31 g ai/ha, scale 0 (no effect) to 100 (complete control)
[21] = Preemergence, 62 g ai/ha, scale of 0 to 100, 0 is no effect, 100 is complete control
[22] = Preemergence, 125 g ai/ha, scale 0 to 100, 0 no effect, 100 complete control
[23] = Preemergence, 250 g ai/ha, scale 0 to 100, 0 no effect, 100 complete control
[24] = 62 g ai/ha, scale 0 to 100 (0 no effect, 100 complete control)
[25] = 125 g ai/ha, scale 0 to 100, 0 no effect, 100 complete control
[26] = Preemergence, 31 g ai/ha, scale of 0 to 100, 0 is no effect, 100 is complete control

Q: What does the source list for CCCc1nn(-c2ccc(F)cc2F)nc1Oc1ccnc(C(F)(F)F)c1 [Compound 179]?
A: Plant response rating, Corn [1, 12]: 20; Corn plant response rating ([1]; Postemergence, 500 g ai/ha, 0 to 100 scale, 0 is no effect, 100 is complete control): 30; Plant response rating, Corn [1, 13]: 20; Plant response rating, Corn [1, 14]: 30; Plant response rating, Ducksalad (0 to 100 scale, 0 is no effect, 100 is complete control) ([2]; 125 g ai/ha): 65; Plant response rating, Oat, Wild [3, 15]: 10; Plant response rating, Oat, Wild [3, 16]: 20; Plant response rating, Oat, Wild [3, 17]: 35; Plant response rating, Oat, Wild [3, 18]: 50; Plant response rating, Corn [4, 15]: 15; Plant response rating, Corn [4, 16]: 15; Plant response rating, Corn [4, 17]: 15; Plant response rating, Corn [4, 19]: 15; Plant response rating, Corn [4, 20]: 5; Plant response rating, Corn [4, 21]: 20; Plant response rating, Corn [4, 22]: 20; Plant response rating, Corn [4, 23]: 20; Plant response rating, Crabgrass, Large [5, 15]: 20; Plant response rating, Crabgrass, Large [5, 16]: 20; Plant response rating, Crabgrass, Large [5, 17]: 35; Plant response rating, Crabgrass, Large [5, 19]: 80; Plant response rating, Crabgrass, Large [5, 20]: 100; Plant response rating, Crabgrass, Large [5, 21]: 100; Plant response rating, Crabgrass, Large [5, 22]: 100; Plant response rating, Crabgrass, Large [5, 23]: 100; Plant response rating, Chickweed ([6]; 31 g ai/ha, scale 0 to 100 (0 no effect, 100 complete control)): 75; Plant response rating, Chickweed [6, 24]: 80; Plant response rating, Chickweed [6, 25]: 85; Plant response rating, Chickweed ([6]; 250 g ai/ha, scale 0 to 100): 95; Plant response rating, Kochia [7, 15]: 80; Plant response rating, Kochia [7, 16]: 90; Plant response rating, Kochia [7, 17]: 90; Plant response rating, Kochia [7, 18]: 90; Plant response rating, Foxtail, Giant [8, 15]: 35; Plant response rating, Foxtail, Giant [8, 16]: 40; Plant response rating, Foxtail, Giant [8, 17]: 55; Plant response rating, Foxtail, Giant [8, 19]: 80; Plant response rating, Foxtail, Giant [8, 20]: 100; Plant response rating, Foxtail, Giant [8, 21]: 100; Plant response rating, Foxtail, Giant [8, 22]: 100; Plant response rating, Foxtail, Giant [8, 23]: 100; Plant response rating, Velvetleaf [9, 15]: 55; Plant response rating, Velvetleaf [9, 16]: 75; Plant response rating, Velvetleaf [9, 17]: 75; Plant response rating, Velvetleaf [9, 18]: 75; Plant response rating, Velvetleaf [9, 20]: 30; Plant response rating, Velvetleaf [9, 21]: 75; Plant response rating, Velvetleaf [9, 22]: 80; Plant response rating, Velvetleaf [9, 23]: 80; Plant response rating, Nutsedge, Yellow [10, 15]: 5; Plant response rating, Nutsedge, Yellow [10, 16]: 5; Plant response rating, Nutsedge, Yellow [10, 17]: 10; Plant response rating, Nutsedge, Yellow [10, 18]: 10; Plant response rating, Nutsedge, Yellow [10, 20]: 0; Plant response rating, Nutsedge, Yellow [10, 21]: 0; Plant response rating, Nutsedge, Yellow [10, 22]: 0; Plant response rating, Nutsedge, Yellow [10, 23]: 5; Plant response rating, Ragweed [11, 15]: 50; Plant response rating, Ragweed [11, 16]: 55; Plant response rating, Ragweed [11, 17]: 60; Plant response rating, Ragweed [11, 18]: 75; Plant response rating, Ragweed [11, 20]: 40; Plant response rating, Ragweed [11, 21]: 40; Plant response rating, Ragweed [11, 22]: 45; Plant response rating, Ragweed [11, 23]: 45

Q: What does the source list for COc1nn(-c2ccc(C(F)(F)F)cc2)nc1Cc1ccnc(C(F)F)c1 [Compound 138]?
A: Corn plant response rating [1, 12]: 50; Corn plant response rating ([1]; Postemergence, 500 g ai/ha, visual rating on 0 to 100 scale (0 no effect, 100 complete control), approximately ten days): 70; Plant response rating, Corn [1, 13]: 30; Plant response rating, Corn [1, 14]: 60; Plant response rating, Ducksalad (0 to 100 scale, 0 is no effect, 100 is complete control) ([2]; 250 g ai/ha): 90; Plant response rating, Oat, Wild [3, 15]: 55; Plant response rating, Oat, Wild [3, 16]: 60; Plant response rating, Oat, Wild [3, 17]: 80; Plant response rating, Oat, Wild [3, 19]: 98; Plant response rating, Oat, Wild [3, 26]: 80; Plant response rating, Oat, Wild [3, 21]: 85; Plant response rating, Oat, Wild [3, 22]: 95; Plant response rating, Oat, Wild [3, 23]: 95; Plant response rating, Corn [4, 26]: 20; Plant response rating, Corn [4, 21]: 30; Plant response rating, Corn [4, 22]: 40; Plant response rating, Corn [4, 23]: 55; Plant response rating, Crabgrass, Large [5, 15]: 45; Plant response rating, Crabgrass, Large [5, 16]: 50; Plant response rating, Crabgrass, Large [5, 17]: 55; Plant response rating, Crabgrass, Large [5, 19]: 95; Plant response rating, Crabgrass, Large [5, 26]: 98; Plant response rating, Crabgrass, Large [5, 21]: 100; Plant response rating, Crabgrass, Large [5, 22]: 100; Plant response rating, Crabgrass, Large [5, 23]: 100; Plant response rating, Chickweed [6, 24]: 80; Plant response rating, Chickweed [6, 25]: 95; Plant response rating, Chickweed ([6]; 250 g ai/ha, scale 0 to 100): 98; Plant response rating, Kochia [7, 15]: 95; Plant response rating, Kochia [7, 16]: 95; Plant response rating, Kochia [7, 17]: 98; Plant response rating, Kochia [7, 19]: 98; Plant response rating, Kochia [7, 26]: 55; Plant response rating, Kochia [7, 21]: 65; Plant response rating, Kochia [7, 22]: 85; Plant response rating, Kochia [7, 23]: 90; Plant response rating, Foxtail, Giant [8, 15]: 20; Plant response rating, Foxtail, Giant [8, 16]: 55; Plant response rating, Foxtail, Giant [8, 17]: 55; Plant response rating, Foxtail, Giant [8, 19]: 95; Plant response rating, Foxtail, Giant [8, 26]: 98; Plant response rating, Foxtail, Giant [8, 21]: 100; Plant response rating, Foxtail, Giant [8, 22]: 100; Plant response rating, Foxtail, Giant [8, 23]: 100; Plant response rating, Velvetleaf [9, 15]: 50; Plant response rating, Velvetleaf [9, 16]: 75; Plant response rating, Velvetleaf [9, 17]: 80; Plant response rating, Velvetleaf [9, 19]: 90; Plant response rating, Velvetleaf [9, 26]: 5; Plant response rating, Velvetleaf [9, 22]: 55; Plant response rating, Velvetleaf [9, 23]: 98; Plant response rating, Nutsedge, Yellow [10, 15]: 10; Plant response rating, Nutsedge, Yellow [10, 16]: 10; Plant response rating, Nutsedge, Yellow [10, 17]: 15; Plant response rating, Nutsedge, Yellow [10, 19]: 20; Plant response rating, Nutsedge, Yellow [10, 26]: 5; Plant response rating, Nutsedge, Yellow [10, 22]: 5; Plant response rating, Nutsedge, Yellow [10, 23]: 5; Plant response rating, Ragweed [11, 15]: 75; Plant response rating, Ragweed [11, 16]: 80; Plant response rating, Ragweed [11, 17]: 85; Plant response rating, Ragweed [11, 19]: 85; Plant response rating, Ragweed [11, 26]: 40; Plant response rating, Ragweed [11, 21]: 45; Plant response rating, Ragweed [11, 22]: 50; Plant response rating, Ragweed [11, 23]: 50
